# Experimental data from patent publication US20230210831A1, “CHRONIC KIDNEY DISEASE TREATMENT OR PREVENTION METHOD” (Japan Tobacco Inc., priority 2019, published 2023).
# Assays:
# Assay type in all cases: cell-based
# [1] = system: Salmonella typhimurium TA98; test: Ames test (reverse mutation test), TA98
# Experimental: (§1) The solvent used herein was dimethyl sulfoxide (DMSO, 100 µL/plate).
# (§2) The mixtures were preincubated at 37° C. for 20 minutes while shaking. […] Two plates per treatment were used.
# [2] = system: Salmonella typhimurium TA1537; test: Ames test (reverse mutation test), TA1537
# Experimental: as §1, §2
# [3] = system: Salmonella typhimurium TA100; test: Ames test (reverse mutation test), TA100
# Experimental: as §1, §2
# [4] = system: Salmonella typhimurium TA1535; test: Ames test (reverse mutation test), TA1535
# Experimental: as §1, §2
# Escherichia coli WP2uvrA = test: Ames test (reverse mutation test), WP2uvrA
# Experimental: as §1, §2
compound,measurement,setting,value
Cc1cccc(-n2nc(N)cc2-c2cccc(OC(F)(F)F)c2)c1 [Metabolite H],Number of revertant colonies TA98,"[1]; S9 Mix +, dose 2.3 µg/plate",56
same,Number of revertant colonies TA98,"[1]; S9 Mix +, dose 6.9 µg/plate",61
same,Number of revertant colonies TA98,"[1]; S9 Mix +, dose 21 µg/plate",152
same,Number of revertant colonies TA98,"[1]; S9 Mix +, dose 62 µg/plate",194
same,Number of revertant colonies TA98,"[1]; S9 Mix +, dose 185 µg/plate",85
same,Number of revertant colonies TA98,"[1]; S9 Mix +, dose 556 µg/plate",56
same,Number of revertant colonies TA98,"[1]; S9 Mix +, dose 1667 µg/plate",48
same,Number of revertant colonies TA98,"[1]; S9 Mix +, dose 5000 µg/plate",20
same,Number of revertant colonies TA98,"[1]; S9 Mix -, dose 2.3 µg/plate",18
same,Number of revertant colonies TA98,"[1]; S9 Mix -, dose 6.9 µg/plate",23
same,Number of revertant colonies TA98,"[1]; S9 Mix -, dose 21 µg/plate",18
same,Number of revertant colonies TA98,"[1]; S9 Mix -, dose 62 µg/plate",20
same,Number of revertant colonies TA98,"[1]; S9 Mix -, dose 185 µg/plate",22
same,Number of revertant colonies TA98,"[1]; S9 Mix -, dose 556 µg/plate",20
same,Number of revertant colonies TA98,"[1]; S9 Mix -, dose 1667 µg/plate",17
same,Number of revertant colonies TA98,"[1]; S9 Mix -, dose 5000 µg/plate",3
same,potential to induce reverse mutations,[1]; TA98 with S9 mix,showed potential to induce reverse mutations
same,Number of revertant colonies TA1537,"[2]; S9 Mix +, dose 2.3 µg/plate",11
same,Number of revertant colonies TA1537,"[2]; S9 Mix +, dose 6.9 µg/plate",15
same,Number of revertant colonies TA1537,"[2]; S9 Mix +, dose 21 µg/plate",26
same,Number of revertant colonies TA1537,"[2]; S9 Mix +, dose 62 µg/plate",35
same,Number of revertant colonies TA1537,"[2]; S9 Mix +, dose 185 µg/plate",18
same,Number of revertant colonies TA1537,"[2]; S9 Mix +, dose 556 µg/plate",10
same,Number of revertant colonies TA1537,"[2]; S9 Mix +, dose 1667 µg/plate",19
same,Number of revertant colonies TA1537,"[2]; S9 Mix +, dose 5000 µg/plate",15
same,Number of revertant colonies TA1537,"[2]; S9 Mix -, dose 2.3 µg/plate",9
same,Number of revertant colonies TA1537,"[2]; S9 Mix -, dose 6.9 µg/plate",9
same,Number of revertant colonies TA1537,"[2]; S9 Mix -, dose 21 µg/plate",11
same,Number of revertant colonies TA1537,"[2]; S9 Mix -, dose 62 µg/plate",9
same,Number of revertant colonies TA1537,"[2]; S9 Mix -, dose 185 µg/plate",4
same,Number of revertant colonies TA1537,"[2]; S9 Mix -, dose 556 µg/plate",6
same,Number of revertant colonies TA1537,"[2]; S9 Mix -, dose 1667 µg/plate",5
same,Number of revertant colonies TA1537,"[2]; S9 Mix -, dose 5000 µg/plate",2
same,potential to induce reverse mutations,[2]; TA1537 with S9 mix,showed potential to induce reverse mutations
same,Number of revertant colonies TA100,"[3]; S9 Mix +, dose 2.3 µg/plate",449
same,Number of revertant colonies TA100,"[3]; S9 Mix +, dose 6.9 µg/plate",1035
same,Number of revertant colonies TA100,"[3]; S9 Mix +, dose 21 µg/plate",2000
same,Number of revertant colonies TA100,"[3]; S9 Mix +, dose 62 µg/plate",2212
same,Number of revertant colonies TA100,"[3]; S9 Mix +, dose 185 µg/plate",722
same,Number of revertant colonies TA100,"[3]; S9 Mix +, dose 556 µg/plate",373
same,Number of revertant colonies TA100,"[3]; S9 Mix +, dose 1667 µg/plate",242
same,Number of revertant colonies TA100,"[3]; S9 Mix +, dose 5000 µg/plate",75
same,Number of revertant colonies TA100,"[3]; S9 Mix -, dose 2.3 µg/plate",130
same,Number of revertant colonies TA100,"[3]; S9 Mix -, dose 6.9 µg/plate",127
same,Number of revertant colonies TA100,"[3]; S9 Mix -, dose 21 µg/plate",136
same,Number of revertant colonies TA100,"[3]; S9 Mix -, dose 62 µg/plate",113
same,Number of revertant colonies TA100,"[3]; S9 Mix -, dose 185 µg/plate",103
same,Number of revertant colonies TA100,"[3]; S9 Mix -, dose 556 µg/plate",88
same,Number of revertant colonies TA100,"[3]; S9 Mix -, dose 1667 µg/plate",79
same,Number of revertant colonies TA100,"[3]; S9 Mix -, dose 5000 µg/plate",55
same,potential to induce reverse mutations,[3]; TA100 with S9 mix,showed potential to induce reverse mutations
same,Number of revertant colonies TA1535,"[4]; S9 Mix +, dose 1667 µg/plate",3
same,Number of revertant colonies TA1535,"[4]; S9 Mix -, dose 185 µg/plate",14
same,Number of revertant colonies TA1535,"[4]; S9 Mix -, dose 1667 µg/plate",6
same,Number of revertant colonies WP2uvrA,"Escherichia coli WP2uvrA; S9 Mix +, dose 2.3 µg/plate",23
same,Number of revertant colonies WP2uvrA,"Escherichia coli WP2uvrA; S9 Mix +, dose 6.9 µg/plate",25
same,Number of revertant colonies WP2uvrA,"Escherichia coli WP2uvrA; S9 Mix +, dose 21 µg/plate",25
same,Number of revertant colonies WP2uvrA,"Escherichia coli WP2uvrA; S9 Mix +, dose 62 µg/plate",35
same,Number of revertant colonies WP2uvrA,"Escherichia coli WP2uvrA; S9 Mix +, dose 185 µg/plate",26
same,Number of revertant colonies WP2uvrA,"Escherichia coli WP2uvrA; S9 Mix +, dose 556 µg/plate",20
same,Number of revertant colonies WP2uvrA,"Escherichia coli WP2uvrA; S9 Mix +, dose 1667 µg/plate",19
same,Number of revertant colonies WP2uvrA,"Escherichia coli WP2uvrA; S9 Mix +, dose 5000 µg/plate",9
same,Number of revertant colonies WP2uvrA,"Escherichia coli WP2uvrA; S9 Mix -, dose 2.3 µg/plate",21
same,Number of revertant colonies WP2uvrA,"Escherichia coli WP2uvrA; S9 Mix -, dose 6.9 µg/plate",18
same,Number of revertant colonies WP2uvrA,"Escherichia coli WP2uvrA; S9 Mix -, dose 21 µg/plate",18
same,Number of revertant colonies WP2uvrA,"Escherichia coli WP2uvrA; S9 Mix -, dose 62 µg/plate",20
same,Number of revertant colonies WP2uvrA,"Escherichia coli WP2uvrA; S9 Mix -, dose 185 µg/plate",20
same,Number of revertant colonies WP2uvrA,"Escherichia coli WP2uvrA; S9 Mix -, dose 556 µg/plate",17
same,Number of revertant colonies WP2uvrA,"Escherichia coli WP2uvrA; S9 Mix -, dose 1667 µg/plate",13
same,Number of revertant colonies WP2uvrA,"Escherichia coli WP2uvrA; S9 Mix -, dose 5000 µg/plate",8
